For test [1], the system named is IGF-1 receptor. Put plainly: Chronic denervation: IGF receptor mRNA in gastrocnemius (qPCR). Conditions: for IGF-receptor expression: denervated muscle. The format is in vivo, rat. Here is the method:
Male Wistar rats weighing 200-250 gm (Taconic Farms, Germantown, N.Y.) were provided food and water ad libitum and were housed in a temperature and humidity controlled environment providing a 12:12 hour day-night cycle. For surgical procedures, animals were anesthetized with ketamine/xylazine. The left sciatic nerve was exposed by blunt dissection, and a 1 to 2 mm piece of this nerve was excised just below the level of the femoral head. A sham surgery was performed on the right hind limb in which the sciatic nerve was exposed but was not transected. Twenty eight days later, animals were anesthetized, and Alzet pumps were implanted subcutaneously on the back. […] Testosterone levels after replacement were approximately 15 nM, a high-normal range for rats of this age. Animals were sacrificed 3, 7 or 28 days after implantation of the miniosmotic pumps by inhalation of carbon dioxide. Gastrocnemius muscles were excised and weighed, then flash frozen on dry ice and stored at −80° C.
Total RNA was extracted from skeletal muscle (20 mg) by homogenization in guanidine thiocyanate using a Polytron followed by extraction of total RNA with phenol-chloroform as described by (Chomczynski and Sacchi, Anal Biochem 162: 156-159, 1987). Total RNA was further enriched using RNAeasy minicolumns (Qiagen, Valencia, Calif.). This procedure included digestion of contaminating DNA on the column with RNAse-free DNAse (Qiagen). Total RNA was eluted and quantified by absorbance at 260 nm. One μg of total RNA was used to prepare a cDNA library by reverse transcription (High Capacity cDNA Archive Kit, Applied Biosystems). Libraries were diluted 25-fold with water. Real time PCR was performed Taqman 2×PCR buffer (Applied Biosystems) using an Applied Biosystems 7500 thermocycler. Levels of gene expression in the denervated muscle were expressed as fold induction relative to muscle from the sham-denervated leg of animals administered vehicle. […] Fold-induction was determined using the 2^−ΔΔCt method, using expression of 18S RNA as the normalization control. […]

Test [2] has as its system IGF-1 receptor (IGF-1R). Put plainly: Acute denervation: IGF-1 receptor mRNA in EDL and soleus (qPCR). The format is in vivo, rat. The method, then:
Male Wistar rats weighing 250 gm (Taconic Farms, Germantown, N.Y.) were provided food and water ad libitum and were housed in a temperature and humidity controlled environment providing a 12:12 hour day-night cycle. For surgical procedures, animals were anesthetized with ketamine/xylazine. The left sciatic nerve was exposed by blunt dissection, and a 1 to 2 mm piece of this nerve was excised just below the level of the femoral head. A sham surgery was performed on the right hind limb in which the sciatic nerve was exposed but was not transected. Model 2002 Alzet pumps were implanted subcutaneously on the back. […] A pellet containing 15 mg of testosterone (Innovative Research of America, Sarasota, Fla.) administered as a continuous infusion (5 mg/wk), or a pellet containing placebo, was inserted into a subcutaneous pouch. […]
Total RNA was extracted from skeletal muscle (20 mg) by homogenization in guanidine thiocyanate using a Polytron followed by extraction using phenol-chloroform (Chomczynski and Sacchi, Anal Biochem 162: 156-159, 1987). […] Total RNA was then eluted and quantified by absorbance at 260 nm. […] Levels of gene expression in the denervated muscle were expressed as fold induction relative to muscle from the sham-denervated leg of animals administered vehicle. […] Fold-induction was determined using the 2^−ΔΔCt method, using expression of 18S RNA as the normalization control. […]

On to `C[C@]12CC[C@H]3[C@@H](CCC4=CC(=O)CC[C@@H]43)[C@@H]1CC[C@@H]2O` [nandrolone], for which the IGF-receptor expression entry in test [1] (after 28 days (p<0.10)) is recorded as “trend toward increased expression”; in test [1] (early time points), “did not alter”. Moreover, the IGF-1 receptor expression result in test [1] (sham-denervated muscle) is “not altered”. Further, the IGF-1R expression result is listed as “No appreciable effects” in test [2] (denervated soleus or EDL); “tended to increase” in test [2] (sham-denervated soleus and EDL, changes not significant).

The values are drawn from patent US7429482B2, “Screening tools for discovery of novel anabolic agents” (United States of America as represented by the Department …, priority 2005, dated 2008).
